{
  "source": "patent US20130302909A1",
  "about": "“ASSESSMENT OF IGF-1 LEVELS IN HIV-INFECTED SUBJECTS AND USES THEREOF” (THERATECHNOLOGIES INC., priority 2011, published 2013)",
  "key": {"serum IGF-1 [1]": {"test_system": "serum IGF-1", "assay": "Serum IGF-1 level and IGF-1 SDS in HIV patients treated with ThGRF, combined phase 3 studies, main phase (LIPO-010 Main/CTR-1011)", "type": "in vivo, human", "settings": "Week 26; for SDS >2 (%) / SDS >3 (%): HIV+ male normative ranges", "source_text": "(§1) The IGF-1 normative ranges were derived from two phase 3 clinical studies of treatment with the GRF analog (hexenoyl trans-3)hGRF(1-44)NH2 (also referred to herein as “ThGRF” or “TH9507”). One phase 3 clinical study includes a main phase (6 months) and an extension phase (6 months) in one study (Lipo-010) and the second phase 3 clinical study includes two studies. CTR-1011 was the main phase (first 6 months) and CTR-1012 was the extension phase (last 6 months).\n(§2) The IGF-1 data at baseline of all male patients from studies Lipo-010 and CTR-1011 were combined. Loge transformation was applied. […] The level of IGF-1 in the serum samples was determined using a blocking RIA assay. The IGF-1 blocking RIA assay is a competitive binding radioimmunoassay. It utilizes rabbit polyclonal antisera specific for IGF-1 as the primary antibody and radioiodinated recombinant human IGF-1 as tracer. Serum IGF-1 is first separated from binding proteins by acid ethanol extraction. The extracts (controls and unknown/test samples) and standard are incubated with primary antibody and tracer. Free IGF-1 present in the extracts competes with and displaces the tracer from primary antibody. A second antibody specific for rabbit immunoglobulin is added to precipitate the immunocomplexes, which are then separated from free reactants by centrifugation. The amount of radioactivity present in the precipitated immunocomplex is measured with a gamma counter and is inversely related to the concentration of IGF-1 present in the sample. The amount of tracer bound to the immunocomplexes formed in the calibrator samples (purified recombinant human IGF-1) is used to establish a dose response standard curve from which the IGF-1 concentration of controls and unknown samples are back calculated.\n(§3) During clinical studies of the treatment of HIV subjects with ThGRF, initial analyses of IGF-I values of the HIV subjects was performed using a typical IGF-I determination, in which age- and gender-specific means and SD values were utilized for the calculation of the standard deviation scores (SDS). These values were derived from a relatively small cohort of healthy adults and were established assuming a Normal distribution (without any transformation of the measured IGF-1 values). As such, determination of the normative IGF-1 range was initially performed based on age- and gender-matched healthy (i.e., non-HIV) subjects, without any transformation of the measured raw IGF-1 values, referred to herein below as the “typical method” or “typical approach”.\n(§4) The IGF-1 SDS were recalculated based on the means and standard deviations calculated from HIV patients (from all male patients in the above-noted clinical studies at baseline per age group as presented in Table III above, assuming a Normal distribution). The results are presented in Table IV for the main phase and the extension phase.\n(§5) The calculations above (based on “healthy”, typical normative ranges or using normative ranges based on IGF-1 levels in HIV subjects) were all done assuming a Normal distribution of the IGF-1 levels. However, it was noted that the distribution of the IGF-1 levels at baseline for the patients in the phase 3 clinical studies is “Lognormal” rather than “Normal”. Thus, the means and standard deviations were recalculated using the natural log(loge or In) of IGF-1 and then calculated IGF-1 SDS using the lognormal scale, i.e. [(natural log IGF-1) minus (mean) divided by (standard deviation)]. The results using lognormal distributions are presented in Table V for the main phase and the extension phase. Importantly, the percent of patients at baseline and those treated with placebo is now much closer to expected and in addition, the % of ThGRF-treated patients being larger than +2 and +3 SDS using the lognormal distribution and the HIV population normative ranges are substantially lower than that seen using the uncorrected SDS calculators."}, "serum IGF-1 [2]": {"test_system": "serum IGF-1", "assay": "Serum IGF-1 SDS in HIV patients treated with ThGRF, combined phase 3 studies, extension phase (LIPO-010 Extension/CTR-1012)", "type": "in vivo, human", "settings": "for SDS >2 (%) / SDS >3 (%): HIV+ male normative ranges, percent of patients", "source_text": "as §1, §2, §3, §4, §5"}, "[3]": {"settings": "2 mg/day, Log-Normal distribution, percent of patients"}, "[4]": {"settings": "2 mg/day, Normal distribution, percent of patients"}, "[5]": {"settings": "2 mg/day, typical approach, percent of patients"}, "[6]": {"settings": "Week 27, T-P group, Log-Normal distribution"}, "[7]": {"settings": "Week 27, T-P group, Normal distribution"}, "[8]": {"settings": "Week 27, T-T group, Log-Normal distribution"}, "[9]": {"settings": "Week 27, T-T group, Normal distribution"}, "[10]": {"settings": "Week 52, T-P group, Log-Normal distribution"}, "[11]": {"settings": "Week 52, T-P group, Normal distribution"}, "[12]": {"settings": "Week 52, T-T group, Log-Normal distribution"}, "[13]": {"settings": "Week 52, T-T group, Normal distribution"}, "[14]": {"settings": "Week 52, typical approach and healthy normative ranges"}},
  "note": "*: point of attachment. Hexenoyl(3E) = CC/C=C/CC(=O)*",
  "data": [
    {"substance": "(hexenoyl trans-3)hGRF(1-44)NH2 ({Hexenoyl(3E)}-YADAIFTNSYRKVLGQLSARKLLQDIMSRQQGESNQERGARARL-NH2) [ThGRF]", "values": [
      {"measurement": "SDS >2 (%)", "setting": "serum IGF-1 [1]; [3]", "value": 30.1, "unit": "%"},
      {"measurement": "SDS >3 (%)", "setting": "serum IGF-1 [1]; [3]", "value": 7.4, "unit": "%"},
      {"measurement": "SDS >2 (%)", "setting": "serum IGF-1 [1]; [4]", "value": 41.2, "unit": "%"},
      {"measurement": "SDS >3 (%)", "setting": "serum IGF-1 [1]; [4]", "value": 25.4, "unit": "%"},
      {"measurement": "IGF-1 SDS Mean (SD)", "setting": "serum IGF-1 [1]; 2 mg/day, typical approach (healthy normative ranges, Normal distribution)", "value": "2.4 (2.85)"},
      {"measurement": "SDS >+2 (%)", "setting": "serum IGF-1 [1]; [5]", "value": 47.4, "unit": "%"},
      {"measurement": "SDS >+3 (%)", "setting": "serum IGF-1 [1]; [5]", "value": 35.6, "unit": "%"},
      {"measurement": "IGF-1 level Mean (SD)", "setting": "serum IGF-1 [1]; ThGRF 2 mg/day", "value": "262 (123.6) ng/ml"},
      {"measurement": "SDS >2 (%)", "setting": "serum IGF-1 [2]; [6]", "value": 28.8, "unit": "%"},
      {"measurement": "SDS >3 (%)", "setting": "serum IGF-1 [2]; [6]", "value": 5.3, "unit": "%"},
      {"measurement": "SDS >2 (%)", "setting": "serum IGF-1 [2]; [7]", "value": 40.2, "unit": "%"},
      {"measurement": "SDS >3 (%)", "setting": "serum IGF-1 [2]; [7]", "value": 21.2, "unit": "%"},
      {"measurement": "SDS >2 (%)", "setting": "serum IGF-1 [2]; [8]", "value": 32.6, "unit": "%"},
      {"measurement": "SDS >3 (%)", "setting": "serum IGF-1 [2]; [8]", "value": 7.6, "unit": "%"},
      {"measurement": "SDS >2 (%)", "setting": "serum IGF-1 [2]; [9]", "value": 44.5, "unit": "%"},
      {"measurement": "SDS >3 (%)", "setting": "serum IGF-1 [2]; [9]", "value": 29.2, "unit": "%"},
      {"measurement": "SDS >2 (%)", "setting": "serum IGF-1 [2]; [10]", "value": 0.0, "unit": "%"},
      {"measurement": "SDS >3 (%)", "setting": "serum IGF-1 [2]; [10]", "value": 0.0, "unit": "%"},
      {"measurement": "SDS >2 (%)", "setting": "serum IGF-1 [2]; [11]", "value": 1.1, "unit": "%"},
      {"measurement": "SDS >3 (%)", "setting": "serum IGF-1 [2]; [11]", "value": 0.0, "unit": "%"},
      {"measurement": "SDS >2 (%)", "setting": "serum IGF-1 [2]; [12]", "value": 19.5, "unit": "%"},
      {"measurement": "SDS >3 (%)", "setting": "serum IGF-1 [2]; [12]", "value": 5.8, "unit": "%"},
      {"measurement": "SDS >2 (%)", "setting": "serum IGF-1 [2]; [13]", "value": 27.9, "unit": "%"},
      {"measurement": "SDS >3 (%)", "setting": "serum IGF-1 [2]; [13]", "value": 16.3, "unit": "%"},
      {"measurement": "ThGRF-treated patients larger than +2 SDS", "setting": "serum IGF-1 [2]; [14]", "value": 33.7, "unit": "%"},
      {"measurement": "ThGRF-treated patients larger than +3 SDS", "setting": "serum IGF-1 [2]; [14]", "value": 22.6, "unit": "%"}
    ]}
  ]
}
